3 substances from patent publication US7871978B2, “Bone tropic peptides” (University of Virginia Patent Foundation, priority 2004, dated 2011) can be followed below.

“Also recorded” adds a separate entry of the source.

Test [1] relates to Bone marrow cells isolated from mouse femur. The test is described as follows: Peptide binding to bone marrow cells in culture (Avidin-FITC). Details: key to Localization of peptide binding: Marrow (cells in culture): ✓: Check marks indicate positive binding observed with FITC; −: a dash indicates a negative result. Particulars: for Localization of peptide binding: Marrow (cells in culture): FITC; for Binding to adherent cells from bone marrow blowouts: fibronectin-coated chamber slides, Avidin-FITC staining. As for the experimental part:
(§1) For localization of peptide binding to cells and tissue sections, biotinylated peptides were synthesized. Fluorescein-isothiocyanate (FITC) labeled Avidin was used to localize the peptides on cells in culture and in tissue sections in vitro by epiluminescence microscopy. In addition, the biotinylated peptides were detected at concentrations as low as 1 μM in slot blots.
(§2) Bone marrow cells isolated from mouse femur were lifted with ethylenediaminetetraacetic acid (EDTA) and trypsin, resuspended, and allowed to attach on fibronectin-coated chamber slides for Avidin-FITC staining. […] The D1 cell is a multipotential mesenchymal stem-like line that was isolated from bone marrow and shown to have the characteristics of osteoprogenitor cells. This cell line has been well established and used successfully in several in vitro and in vivo studies in our laboratory. Peptide binding to human bone marrow endothelial cells (HBME) and bovine aortic endothelial cells (BAEC) in culture was also tested using the same procedure.

The subject of the next test is D1 cells. The test is described as follows: Peptide binding to D1 bone marrow mesenchymal cells. To be noted: for Binding to D1 cells: FIG. 4; for Binding to cells from the skeleton in vitro: mesenchymal cells from bone marrow (D1), or human bone marrow endothelial cells, avidin-FITC probe.
Excerpt: as §2
The peptides were ranked based on the frequency with which they occurred in the plaques from which DNA was prepared and sequenced. Four of the sequences (L13, L19, R1, and R3) were synthesized as biotinylated peptide or as the control non biotinylated version of the sequence. […] The cells used in these experiments were mesenchymal cells from bone marrow (D1), or human bone marrow endothelial cells. An avidin-FITC probe detected the biotinylated peptide in areas of the cells in culture representing either extrusions from the cells or at the end of cell processes; structures reminiscent of adhesion plaques or footprints.

In test [2] the test system is prostate cancer cells (CaP). The test is described as follows: Prostate cancer (CaP) cell adhesion to BMEC, cell line not distinguished. To be noted: for Effect on CaP cell adhesion to BMEC: LNCaP compared to C4-2, FIG. 8, preliminary results. Format: cell-based. As for the experimental part: FIG. 8 is a graphic representation of the effects of various peptides on altering cellular adhesion to BMEC cells in vitro. LNCaP cells were compared directly to C4-2 cells for the ability of specific phage-derived peptides to alter cellular adhesion to BMEC cells in vitro. Adhesion was measured at […]. C=control (no peptide). The ordinate represents percent of acid precipitable counts bound and the abscissa indicated the cells treated and the peptides used.
The phage-derived bone-targeting peptides isolated by biopanning were tested for their ability to alter the adhesion of prostate cancer cells to a human bone marrow endothelial cell line (see FIG. 8). In this assay, LNCaP cells were compared directly to the more metastatic, bone colonizing derivative, C4-2.
This observation will be examined further and exploited by the aims of this proposal to identify the binding partners of nucleolin in prostate cancer cells as well as to investigate bone tropic peptides as potential inhibitors of prostate cancer metastasis.

The subject of test [3] is human bone marrow endothelial cells (HBME). The test is described as follows: Peptide binding to HBME cells in culture (Avidin-FITC). Details: key: ✓: Check marks indicate positive binding observed with FITC; −: a dash indicates a negative result. How it is done:
as §1, §2

The test system of test [4] is Membrane and cytosol fractions from human bone marrow endothelial cells. Put plainly: Affinity chromatography of HBME fractions on immobilized peptide. It counts as binding. Details: key to Identification of binding partners by affinity chromatography: HBME: ✓: Check marks indicate positive binding observed with FITC; −: a dash indicates a negative result. To be noted: for Identification of binding partners by affinity chromatography: HBME: cell lysates. How it is done: (§3) Membrane and cytosol fractions from human bone marrow endothelial cells and bovine aortic endothelial cells were prepared and used to identify the components from within these fractions that bind to the peptides using affinity chromatography). […] Cell surface nucleolin is present at higher concentrations in actively dividing cells and is down regulated in cells when they become quiescent. Nucleolin is the apparent cell surface receptor of E-coli intimin-gamma. Cell bound intimin has been proposed to trigger a host cell response similar to the extension of filipodia when cells bind to laminin. […] Table 3 provides a summary of peptide-binding partners (putative receptors) identified by affinity chromatography of cell lysates.
Peptide Affinity Column Chromatography: Peptides identified from the phage display experiments in mouse bone and bone marrow were synthesized with an additional three-residue glycine linker and an N-terminal lysine residue. The lysine residue was used to specifically link the peptides to a support. Cell membranes from BMECs were solubilized with triton X-100. The solubilized proteins were passed through the peptide affinity column (total volume, 500 μL) followed by extensive washes with buffer. Retained proteins were eluted either with 100 mM solution of the same peptide as that immobilized on the column or with a wash of 0.1 N HCl-Glycine, pH 2.2. The eluates were analyzed by SDS PAGE and proteins observed in the gels were identified by LC/MS/MS.

Test [5] deals with Membrane and cytosol fractions from bovine aortic endothelial cells. The test is described as follows: Affinity chromatography of BAEC fractions on immobilized peptide. It counts as binding. Details: key to Identification of binding partners by affinity chromatography: BAEC: ✓: Check marks indicate positive binding observed with FITC; −: a dash indicates a negative result. To be noted: cell lysates. As for the experimental part:
as §3

The subject of test [6] is bone marrow derived mesenchymal stem cells. The test is described as follows: Microarray gene expression analysis of peptide-treated mesenchymal stem cells. It counts as cell-based. To be noted: 100 μM/ml peptide, day 7, microarray. How it is done: For gene analysis, the bone marrow derived mesenchymal stem cells were seeded at 95,000 cells per well in a 6 well plate and maintained in culture media containing 100 μM/ml of each of the 13 peptides. The media were changed every three days. The cells were harvested at day 7, total RNA isolated using the Qiagen RNeasy kit and quantified with a spectrophotometer. After initial screening of the genes with real-time PCR, four peptides were chosen for microarray analysis: L13, L19, R1, and R3 (SEQ ID NOs: 8, 10, 11, and 13, respectively).

In the case of “ASN-TYR-SER-HIS-LEU-ARG-VAL-LYS-LEU-PRO-THR-PRO-GLY-GLY-GLY-SER (NYSHLRVKLPTPGGGS; listed as Homo sapiens) [Peptide R1]”, in test [1], the “Localization of peptide binding: Marrow (cells in culture)” value is “✓” and the “Binding to adherent cells from bone marrow blowouts” value is “showed detectable binding”. Also, in the test with D1 cells, the “Binding to D1 cells” value is given as “bind to D1 cells” and the “Binding to cells from the skeleton in vitro” value was “found to bind cells from the skeleton”. For the same substance, the “Effect on CaP cell adhesion to BMEC” value in test [2] was “did not show remarkable activity”.
“SER-GLY-HIS-GLN-LEU-LEU-LEU-ASN-LYS-MET-PRO-ASN-GLY-GLY-GLY-SER (SGHQLLLNKMPNGGGS; listed as Homo sapiens) [Peptide L13]”: the “Localization of peptide binding: HBME” value in test [3] was “✓”. Also, in test [1], the “Localization of peptide binding: Marrow (cells in culture)” value is listed as “✓” and the “Binding to adherent cells from bone marrow blowouts” value was “showed detectable binding”. In addition, in the test on D1 cells, the “Binding to D1 cells” value is on record as “bind to D1 cells” and the “Binding to cells from the skeleton in vitro” value is reported as “found to bind cells from the skeleton”. In test [4] (biotinylated peptide immobilized on avidin-agarose), the “Binding partner from HBME / bone marrow endothelial cells” value is “nucleolin was the major component that binds”. Moreover, the “Identification of binding partners by affinity chromatography: HBME” value in test [4] was “✓Nucleolin”. Moreover, the “Identification of binding partners by affinity chromatography: BAEC” value in test [5] is “−”. Further, in test [6], the “Fold Change: Ameloblastin” value is listed as “+3.73 fold”, the “Fold Change: Cartilage link protein 1” value is “+2.00 fold”, the “Fold Change: Eph receptor A5” value is “+4.92 fold” and the “Fold Change: Fibronectin 1” value is reported as −2.64 fold. In addition, in test [6], the “Fold Change: Hypothetical protein MGC28705” value is listed as “+4.59 fold”; the “Fold Change: Neural cell adhesion molecule 2” value was “+6.96 fold”; the “Fold Change: Procollagen, type I, alpha 1” value is given as “+3.03 fold”; the “Fold Change: RIKEN cDNA 2410129E14 gene” value was “+3.03 fold”. Further, in test [6], the “Fold Change: Syndecan 4” value is listed as “+3.03 fold”, the “Fold Change: Thyroid hormone receptor alpha” value is listed as −1.23 fold and the “Fold Change: v-raf-1 leukemia viral oncogene 1” value was “+2.46 fold”. Moreover, the “Concentrations at which peptide inhibits prostate cancer cell adhesion to BMEC” value in test [2] (50 μM and 100 μM tested) is “at both 50 μM and 100 μm”. In addition, the “Effect on CaP cell adhesion to BMEC” value in test [2] is “consistent suppression of CaP cell invasion that was saturated at the doses tested; also recorded: inhibits CaP cell adhesion to bone marrow endothelial cells”.
“ASN-SER-MET-ILE-ALA-HIS-ASN-LYS-THR-ARG-MET-HIS-GLY-GLY-GLY-SER (NSMIAHNKTRMHGGGS; listed as Homo sapiens) [Peptide L7]”: the “Identification of binding partners by affinity chromatography: HBME” value in test [4] is listed as “−”. In addition, the “Identification of binding partners by affinity chromatography: BAEC” value in test [5] was “−”.
